Assay results reported in a melting point compilation (Tetko et al.; mined from patent text by program, amines drawn as free bases though some values may be those of a salt).

SMILES | melting point [°C]
CC(C)S(=O)(=O)c1cc(OCCc2ccccn2)c2[nH]nc(Nc3cnccn3)c2c1 | 195 to 196
CCCN1CC(c2ccc(F)cc2)=C(c2ccc(S(C)(=O)=O)cc2)C1=O | 150 to 152
CCCCS(=O)(=O)c1ccc(NN)cc1 | 138
COc1ccc(Cl)c(Oc2c(C=O)nc(N3CCOCC3)nc2NS(=O)(=O)c2ccc(C(C)C)cn2)c1 | 194
CC1(C)CC(O)CC(C)(C)N1Cc1ccc(CN2C(C)(C)CC(O)CC2(C)C)cc1 | 237 to 239
COc1ccc(Nc2ccc(C)cc2)cc1 | 81 to 82
CCn1nc(C#N)c(Nc2ccc(Cl)cc2[N+](=O)[O-])n1 | 130 to 132
CC(=O)/C=C(\C)c1ccc(C2CCCCC2)c(Cl)c1 | 56.5 to 57.5
O=C(CCCl)Nc1ccc(F)c(Cl)c1 | 94
CCn1ncc2c(Cl)cc(-c3ccccc3)nc21 | 43 to 45
Nc1ncccc1-c1nc2cc(C3CCCC3)cnc2n1-c1ccc(CNC(=O)c2ccccc2)cc1 | 210 to 211
O=C(O)C(c1ccc(Cl)cc1)c1c(Cl)cc(-n2ncc(=O)[nH]c2=O)cc1Cl (centres undefined) | 220
COc1ccc([C@@H]2c3ccccc3C[C@@H]3CC(=O)NCCN32)cc1 (racemic) | 196 to 198
Cc1ccccc1-c1c(C(=O)O)c(=O)oc2cc3c(cc12)CCCC3 | 216 to 217
COc1cc(Nc2c([N+](=O)[O-])ccc(Cl)c2C(=O)O)cc(OC)c1 | 174 to 177
CCCCc1ncc(/C=C(\Cc2cccs2)C(=O)O)n1Cc1ccc(OC)c(C)c1 | 140 to 141
CC(C)C1C(=O)N(Cc2ccccc2)S(=O)(=O)N1C (centres undefined) | 52.5 to 54
CC(=O)OCc1cccc(-c2ccco2)c1C | 48.5 to 50
COC(=O)C(CC(N)C(=O)O)CC(N)N1C=CC=CC1 (centres undefined) | 240 to 242
CCN(CC)C(=O)Nc1ccc(S(=O)(=O)N2C(=O)C(C)(c3cc(C(=O)NCc4cccnc4)ccc3Cl)c3cc(Cl)ccc32)c(OC)c1 (centres undefined) | 148
CCN(CCO)Cc1cc(Nc2nc(Nc3ccc4c(c3OC)CCC(N3CCOCC3)CC4)ncc2Cl)ccc1F (centres undefined) | 81 to 83
CC1=C(C#N)S(=O)(=O)c2ccc(C(F)(F)F)cc2N1 | 329 to 333
C=C(C)C(=O)OCC(COC(=O)C(=C)C)Cc1ccc(-c2ccc(OC(=O)C(=C)C)cc2)cc1 | 49

SMILES | melting point [°C]
COc1cccc(-c2nc(-c3ccccc3C=O)n[nH]2)c1 | 163 to 165
O=C(O)CCCc1ccc(-c2cccc(Cl)c2Cl)cc1 | 70 to 71
CC(=O)NC1CCc2c([nH]c3ccc(F)cc23)C1 (centres undefined) | 209 to 210
CC(Cn1ccc(-c2ccccc2)n1)C(=O)N(C)C (centres undefined) | 68 to 71
OC1CCN(Cc2cccc(F)c2)CC1 | 61 to 62
CC(=O)Nc1ccc(C(C)(C)C)cc1CN(C)C1CCCCC1 | 111 to 112
CC1(C)CCC(C)(C)c2cc(C3=NN(c4ccc(C(=O)O)cc4)CC3)ccc21 | 276 to 278
Cc1c(C)c2c(c(C)c1N)CC(C)(CSc1ccncc1)O2 (centres undefined) | 96 to 97
C#Cc1ccc(C(=O)NC(C#N)OCC)cc1 (centres undefined) | 104 to 106
CN1C(=O)C(c2cccc(-c3cccnc3F)c2)(c2cnn(CC(F)(F)F)c2)N=C1N (centres undefined) | 104 to 106
Cc1cc(-c2cccc(CO)c2)cn2cc(-c3ccc(Cl)cc3)nc12 | 174 to 177
COC(=O)c1ccc(=O)n(CCNC(=O)c2ccc(C)nc2)c1 | 184 to 185
COc1ccc(C(=O)O)c(OCc2ccc(OCCc3nc(-c4ccccc4)oc3C)cc2)c1 | 113 to 115
N#CCc1nn2c(C(F)(F)F)cc(-c3ccc(F)c(Cl)c3)nc2c1C#N | 185
O=C(O)CCCOc1ccccc1OCCC(c1ccccc1)(c1ccccc1)c1ccccc1 | 107 to 108
COc1ccc([C@@H]2CC(=O)N3C(=O)CC[C@H]23)cc1 (relative stereo) | 125 to 127
CN1C(=O)C(NC(=O)Nc2cccc([N+](=O)[O-])c2)N=C(c2ccccc2)c2ccccc21 (centres undefined) | 288 to 289
COc1ccc2[nH]c(C(C)C)c(C=C3SC(=S)N(CC(=O)O)C3=O)c2c1 | 255 to 260
COC(=O)c1ccc(C2=NOC(c3cc(Cl)cc(C(F)(F)F)c3)(C(F)(F)F)C2)c2ccccc12 (centres undefined) | 112
CNC(=O)OCC(C)Nc1ncc(Oc2cc(Cl)c(OC)cc2C(C)C)c(N)n1 (centres undefined) | 63.5 to 69.4
CC(=O)N(O)Cc1ccc2c(c1)OCc1ccccc1C2=O | 65 to 115
NS(=O)(=O)c1cccc(-c2cc(-c3nc(-c4ccc(Cl)c(Cl)c4)cc(C(F)(F)F)n3)ccn2)c1 | 247
COc1cc(N)c2nccc(C)c2c1OCCCCCc1ccco1 | 41 to 42

SMILES | melting point [°C]
Cc1oc(-c2ccccc2)nc1COc1ccc(Cn2cc(CCC(=O)O)c(-c3ccccc3)c2)cc1 | 124 to 125
CCCCCS(=O)(=O)NC(=O)c1ccc2nc(C)n(Cc3ccc(N(C)C(=O)OCC)cc3Cl)c2n1 | 149 to 150
CCOC(=O)c1ncn(Cc2ccc(Cl)c(Cl)c2)c1C(=O)OCC | 105 to 107
O=C(CCCCCOc1ccccc1)c1ccccc1 | 53.5 to 54.5
Nc1cc(I)c(-c2cc([N+](=O)[O-])c(N)cc2I)cc1[N+](=O)[O-] | 346 to 348
CC(=O)NC(=CBr)C(=O)OC(C)(C)C | 106 to 107
CCNC=C(C(=O)C=Cc1ccc(N(C)C)cc1)C(=O)OC | 129 to 130
COc1cc(CNc2n[nH]c3ncnc(Nc4cccc(Cl)c4)c23)cc(OC)c1OC | 240 to 245
COc1cccc(C2=NN=C(C)Cc3cc(OC)c(OC)cc32)c1 | 133 to 135
c1ccc(Nc2ccc(Cc3ccc(Nc4ccccc4)c4ccccc34)c3ccccc23)cc1 | 154 to 157
COc1ccc(-c2ccc(C(F)(F)CC(CC(O)CSc3ccccc3)C(=O)O)cc2)cc1 (centres undefined) | 85 to 86
CCCCCCCCn1c(C)c(C(=O)c2ccccc2C(=O)O)c2ccccc21 | 121 to 123
CCC1NC(c2cc(Cl)nc(Cl)c2)=NC(=O)C1(CC)C(=O)OC (centres undefined) | 202 to 203
COc1nc(C)c(C)nc1N(C)C(=O)N1CCN(c2cc([N+](=O)[O-])cc([N+](=O)[O-])c2)CC1 | 133 to 135
O=C1CC=Nc2cc3c(cc21)OCO3 | 276
NC(=O)c1ncn2c(-c3ccc(N4CCOCC4)cc3)ccnc12 | 274 to 277
O=C1c2ccccc2C(=O)N1C(Cc1ccccc1)C[PH](=O)O (centres undefined) | 127 to 130
COCCOc1cc(NC(=O)OC(C)(C)C)c(NC(=O)CC(=O)c2cccc(C#N)c2)cc1C#Cc1ccccc1 | 175 to 176
CCCc1nc(C(C)C)c(C(=O)OCc2ccc(-c3ccccc3C(=O)C(=O)O)cc2)[nH]1 | 177 to 178
CNC(=O)N(C)c1nnc(C(C)(CCl)CCl)s1 | 150 to 152
CCOC(C)O[C@H]1C(=O)N[C@H]1C=Cc1ccccc1 (some centres undefined) | 98 to 99
CCCc1c(OCCCSc2ccc(C(=O)CCCCC(=O)O)cc2)ccc(C(C)=O)c1O | 130 to 132
Cc1cccc(CC(=O)c2ccnc(-c3ccc(C=O)cc3)c2)n1 | 118
